# From US20090074815A1, “Immunomodulator Compounds as Vaccine Enhancers” (SCICLONE PHARMACEUTICALS, INC., priority 2005, published 2009)
# Where two headings read alike, the source gives them in different places.
# Key:
# [1] = test system: IL-2 production by ConA-stimulated splenocytes; experiment: IL-2 production by ConA-stimulated splenocytes; assay type: in vivo, mice
# [2] = test system: IFN-γ production by ConA-stimulated splenocytes; experiment: IFN-γ production by ConA-stimulated splenocytes (EIA); assay type: in vivo, mice
# [3] = test system: IFN-γ production by OvA-stimulated splenocytes; experiment: OvA-stimulated production of IFN-γ by splenocytes of OvA-immunized mice; assay type: in vivo; details: Mus musculus, Splenocyte, po, read-out: Production of IFN-γ by splenocytes, % (% of control); for activity at 0.0001 mg/kg: 0.1 μg/kg per os; for activity at 0.001 mg/kg: 1.0 μg/kg per os; for activity at 0.01 mg/kg: 10.0 μg/kg per os
# [4] = ConA 1 μg/ml, 0.01 μg/kg per os
# [5] = ConA 1 μg/ml, 10.0 μg/kg per os
# [6] = ConA 1 μg/ml, 100.0 μg/kg per os
# [7] = Spontaneous, 100.0 μg/kg per os
compound,measurement,setting,value
"N[C@H](CCC(=O)N[C@@H](Cc1c[nH]c2ccccc12)C(=O)O)C(=O)O [SCV-07, γ-D-glutamyl-L-tryptophan]","IL-2 production (U/ml), M ± SD",[1]; [4],10.4 ± 1.1 U/ml
same,"IL-2 production (U/ml), M ± SD","[1]; ConA 1 μg/ml, 0.1 μg/kg i/p",16.1 ± 0.8 U/ml
same,"IL-2 production (U/ml), M ± SD","[1]; ConA 1 μg/ml, 0.1 μg/kg per os",7.5 ± 0.1 U/ml
same,"IL-2 production (U/ml), M ± SD","[1]; ConA 1 μg/ml, 1.0 μg/kg i/p",15.6 ± 0.3 U/ml
same,"IL-2 production (U/ml), M ± SD","[1]; ConA 1 μg/ml, 1.0 μg/kg per os",10.0 ± 0.4 U/ml
same,"IL-2 production (U/ml), M ± SD",[1]; [5],9.1 ± 1.3 U/ml
same,"IL-2 production (U/ml), M ± SD",[1]; [6],14.9 ± 2.4 U/ml
same,"IL-2 production (U/ml), M ± SD","[1]; ConA 2 μg/ml, 0.01 μg/kg per os",66.9 ± 12.6 U/ml
same,"IL-2 production (U/ml), M ± SD","[1]; ConA 2 μg/ml, 0.1 μg/kg i/p",93.4 ± 28.3 U/ml
same,"IL-2 production (U/ml), M ± SD","[1]; ConA 2 μg/ml, 0.1 μg/kg per os",85.8 ± 6.6 U/ml
same,"IL-2 production (U/ml), M ± SD","[1]; ConA 2 μg/ml, 1.0 μg/kg i/p",99.3 ± 6.1 U/ml
same,"IL-2 production (U/ml), M ± SD","[1]; ConA 2 μg/ml, 1.0 μg/kg per os",60.8 ± 1.2 U/ml
same,"IL-2 production (U/ml), M ± SD","[1]; ConA 2 μg/ml, 10.0 μg/kg per os",56.4 ± 2.1 U/ml
same,"IL-2 production (U/ml), M ± SD","[1]; ConA 2 μg/ml, 100.0 μg/kg per os",79.3 ± 16.3 U/ml
same,"IL-2 production (U/ml), M ± SD","[1]; Spontaneous, 0.01 μg/kg per os",0.0 ± 0.0 U/ml
same,"IL-2 production (U/ml), M ± SD","[1]; Spontaneous, 0.1 μg/kg i/p",2.0 ± 0.3 U/ml
same,"IL-2 production (U/ml), M ± SD","[1]; Spontaneous, 0.1 μg/kg per os",0.0 ± 0.0 U/ml
same,"IL-2 production (U/ml), M ± SD","[1]; Spontaneous, 1.0 μg/kg i/p",2.7 ± 0.3 U/ml
same,"IL-2 production (U/ml), M ± SD","[1]; Spontaneous, 1.0 μg/kg per os",0.3 ± 0.5 U/ml
same,"IL-2 production (U/ml), M ± SD","[1]; Spontaneous, 10.0 μg/kg per os",0.0 ± 0.0 U/ml
same,"IL-2 production (U/ml), M ± SD",[1]; [7],0.3 ± 0.5 U/ml
same,IFN-γ,[2]; [4],15499 pg/mL
same,IFN-γ,"[2]; ConA 1 μg/ml, 0.1 μg/kg i/p",13089 pg/mL
same,IFN-γ,"[2]; ConA 1 μg/ml, 0.1 μg/kg per os",15695 pg/mL
same,IFN-γ,"[2]; ConA 1 μg/ml, 1.0 μg/kg i/p",30951 pg/mL
same,IFN-γ,"[2]; ConA 1 μg/ml, 1.0 μg/kg per os",11411 pg/mL
same,IFN-γ,[2]; [5],8238 pg/mL
same,IFN-γ,[2]; [6],12990 pg/mL
same,IFN-γ,"[2]; ConA 5 μg/ml, 0.01 μg/kg per os",63227 pg/mL
same,IFN-γ,"[2]; ConA 5 μg/ml, 0.1 μg/kg i/p",87051 pg/mL
same,IFN-γ,"[2]; ConA 5 μg/ml, 0.1 μg/kg per os",65692 pg/mL
same,IFN-γ,"[2]; ConA 5 μg/ml, 1.0 μg/kg i/p",142155 pg/mL
same,IFN-γ,"[2]; ConA 5 μg/ml, 1.0 μg/kg per os",47683 pg/mL
same,IFN-γ,"[2]; ConA 5 μg/ml, 10.0 μg/kg per os",66185 pg/mL
same,IFN-γ,"[2]; ConA 5 μg/ml, 100.0 μg/kg per os",43670 pg/mL
same,IFN-γ,"[2]; Spontaneous, 0.01 μg/kg per os",0 pg/mL
same,IFN-γ,"[2]; Spontaneous, 0.1 μg/kg i/p",1393 pg/mL
same,IFN-γ,"[2]; Spontaneous, 0.1 μg/kg per os",0 pg/mL
same,IFN-γ,"[2]; Spontaneous, 1.0 μg/kg i/p",1738 pg/mL
same,IFN-γ,"[2]; Spontaneous, 1.0 μg/kg per os",1629 pg/mL
same,IFN-γ,"[2]; Spontaneous, 10.0 μg/kg per os",0 pg/mL
same,IFN-γ,[2]; [7],0 pg/mL
same,activity at 0.0001 mg/kg,"[3]; OvA/Alum, OvA 0 μg/ml",100%
same,activity at 0.0001 mg/kg,"[3]; OvA/Alum, OvA 10 μg/ml",124%
same,activity at 0.0001 mg/kg,"[3]; OvA/Alum, OvA 25 μg/ml",150%
same,activity at 0.0001 mg/kg,"[3]; OvA/Alum, OvA 50 μg/ml",150%
same,activity at 0.0001 mg/kg,"[3]; OvA/Alum, OvA 100 μg/ml",158%
same,activity at 0.001 mg/kg,"[3]; OvA/Alum, OvA 0 μg/ml",100%
same,activity at 0.001 mg/kg,"[3]; OvA/Alum, OvA 10 μg/ml",98.3%
same,activity at 0.001 mg/kg,"[3]; OvA/Alum, OvA 25 μg/ml",103%
same,activity at 0.001 mg/kg,"[3]; OvA/Alum, OvA 50 μg/ml",103%
same,activity at 0.001 mg/kg,"[3]; OvA/Alum, OvA 100 μg/ml",122%
same,activity at 0.01 mg/kg,"[3]; OvA/Alum, OvA 0 μg/ml",100%
same,activity at 0.01 mg/kg,"[3]; OvA/Alum, OvA 10 μg/ml",47.9%
same,activity at 0.01 mg/kg,"[3]; OvA/Alum, OvA 25 μg/ml",119%
same,activity at 0.01 mg/kg,"[3]; OvA/Alum, OvA 50 μg/ml",119%
same,activity at 0.01 mg/kg,"[3]; OvA/Alum, OvA 100 μg/ml",140%
same,activity at 0.0001 mg/kg,"[3]; OvA/FA, OvA 0 μg/ml",100%
same,activity at 0.0001 mg/kg,"[3]; OvA/FA, OvA 10 μg/ml",119%
same,activity at 0.0001 mg/kg,"[3]; OvA/FA, OvA 25 μg/ml",121%
